In patent publication US8247211B2, “Glycopeptide antibiotics” (American Cyanamid Company, priority 2001, dated 2012):
In brackets after ≈: the same amount, converted by molar mass. Numbered stars: 1 amine (or outer) side, 2 acyl side, 3 side chain; on linkers, the order of the positions; unused ones are H or OH. Square brackets hold non-standard residues; d marks the D form. Peptide text beside a SMILES is read from it. ξ: configuration not given here. X1 = N=C1NCC(C(O)C(N[*:1])C(=O)[*:2])N1C1OC(CO)C(O)C(O)C1O; X6 = N=C1NCC(CC(N[*:1])C(=O)[*:2])N1C1OC(CO)C(O)C(O)C1O; ξEnduracididine(βξ-OH,4'ξ) = N=C1NCC(C(O)C(N)C(=O)O)N1; Tyr(3-NO2) = N[CH](Cc1ccc(O)c([N+](=O)[O-])c1)C(=O)O; Tyr(3,5-Br2) = N[CH](Cc1cc(Br)c(O)c(Br)c1)C(=O)O; X7 = N=C1NCC(CC(N[*:1])C(=O)[*:2])N1; ξPhe(βξ-Me) = CC(c1ccccc1)C(N)C(=O)O

Legend:
Test in all cases: In vitro antibacterial evaluation: minimum inhibitory concentration (MIC), broth dilution method
Type in all cases: cell-based
Escherichia coli = conditions: broth dilution, 18 hours at 35° C.
Streptococcus sp. = conditions: broth dilution, 18 hours at 35° C.
Summary of the method: (§1)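 Test strains, among them recent clinical isolates carrying methicillin, penicillin and/or vancomycin resistance, were inoculated at 5×10^5 CFU/mL. A broth dilution series spanning 64-0.06 μg/mL in Muller-Hinton II […] (NCCLS M7-A2) defined the MIC as the lowest growth-inhibiting concentration.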

Enterococcus sp. = conditions: broth dilution, 18 hours at 35° C.
Summary of the method: as §1

Staphylococcus sp. = conditions: strain SMITH GC 4543; broth dilution, 18 hours at 35° C.
Summary of the method: as §1

Structure (SMILES) | MIC Escherichia coli (GC 4560) (Escherichia coli) [µg/mL] | MIC Escherichia coli (ATCC 25922) (Escherichia coli) [µg/mL] | MIC Escherichia coli (GC 4559) (Escherichia coli) [µg/mL] | MIC Streptococcus agalactiae (GC 4564) (Streptococcus sp.) [µg/mL] | MIC Streptococcus pneumoniae (ATCC 6301) (Streptococcus sp.) [µg/mL] | MIC Streptococcus pneumoniae (GC 1894) (Streptococcus sp.) [µg/mL] | MIC Streptococcus pneumoniae (GC 4565) (Streptococcus sp.) [µg/mL] | MIC Streptococcus pyogenes (GC 4563) (Streptococcus sp.) [µg/mL] | MIC Enterococcus avium (GC 4558) (Enterococcus sp.) [µg/mL] | MIC Enterococcus faecalis (ATCC 29212) (Enterococcus sp.) [µg/mL] | MIC Enterococcus faecalis (GC 2242) (Enterococcus sp.) [µg/mL] | MIC Enterococcus faecalis (GC 2691) (Enterococcus sp.) [µg/mL] | MIC Enterococcus faecalis (GC 3059) (Enterococcus sp.) [µg/mL] | MIC Enterococcus faecalis (GC 4552) (Enterococcus sp.) [µg/mL] | MIC Enterococcus faecalis (GC 4553) (Enterococcus sp.) [µg/mL] | MIC Enterococcus faecalis (GC 4554) (Enterococcus sp.) [µg/mL] | MIC Enterococcus faecalis (GC 6189) (Enterococcus sp.) [µg/mL] | MIC Enterococcus faecium (GC 2243) (Enterococcus sp.) [µg/mL] | MIC Enterococcus faecium (GC 4556) (Enterococcus sp.) [µg/mL] | MIC Enterococcus faecium (GC 4557) (Enterococcus sp.) [µg/mL] | other results
CC(c1ccccc1)C1NC(=O)CNC(=O)C(CO)NC(=O)C(C(O)C2CNC(=N)N2C2OC(CO)C(O)C(O)C2O)NC(=O)C(C(O)C2CNC(=N)N2)NC(=O)C(Cc2cc(Br)c(O)c(Br)c2)NC1=O (stereo not drawn) [Example 3, Cyclo[glycyl-β-methylphenylalanyl-3,5-dibromotyrosyl-3-(2-iminoimidazolidin-4-yl)seryl-3-(3-hexopyranosyl-2-iminoimidazolidin-4-yl)serylseryl]] (cyclo(G[ξPhe(βξ-Me)][Tyr(3,5-Br2)][ξEnduracididine(βξ-OH,4'ξ)][X1]S); configuration not given here) | 64 (≈ 56.7 µM) | – | – | – | – | – | – | – | – | – | – | – | – | – | – | – | – | – | – | – | –
CC(c1ccccc1)C1NC(=O)CNC(=O)C(CO)NC(=O)C(CC2CNC(=N)N2C2OC(CO)C(O)C(O)C2O)NC(=O)C(CC2CNC(=N)N2)NC(=O)C(Cc2ccc(O)c([N+](=O)[O-])c2)NC1=O (stereo not drawn) [Example 10, Cyclo[3-(2-iminoimidazolidin-4-yl)alanyl-3-(3-hexopyranosyl-2-iminoimidazolidin-4-yl)-alanylserylglycyl-β-methylphenylalanyl-3-nitrotyrosyl]] (cyclo(G[ξPhe(βξ-Me)][Tyr(3-NO2)][X7][X6]S); configuration not given here) | >64 | >64 | >64 | >64 | >64 | >64 | >64 | >64 | >64 | >64 | >64 | >64 | >64 | >64 | >64 | >64 | >64 | >64 | >64 | >64 | –
CC(=O)Nc1cc(CC2NC(=O)C(C(C)c3ccccc3)NC(=O)CNC(=O)C(CO)NC(=O)C(C(O)C3CNC(=N)N3C3OC(CO)C(O)C(O)C3O)NC(=O)C(C(O)C3CNC(=N)N3)NC2=O)ccc1O (stereo not drawn) [Example 13, Cyclo[glycyl-β-methylphenylalanyl-3-acetamidotyrosyl-3-(2-iminoimidazolidin-4-yl)seryl-3-(3-hexopyranosyl-2-iminoimidazolidin-4-yl)serylseryl]] | 32 (≈ 31.1 µM) | >64 | >64 | 16 (≈ 15.6 µM) | 4 (≈ 3.89 µM) | 2 (≈ 1.95 µM) | 4 (≈ 3.89 µM) | 8 (≈ 7.78 µM) | 64 (≈ 62.3 µM) | >64 | 64 (≈ 62.3 µM) | >64 | >64 | >64 | 64 (≈ 62.3 µM) | >64 | >64 | 64 (≈ 62.3 µM) | 64 (≈ 62.3 µM) | 64 (≈ 62.3 µM) | MIC Streptococcus agalactiae (GC 4564) (Streptococcus sp.; Streptococcus agalactiae (GC 4564)): 16 µg/mL (≈ 15.6 µM); MIC Streptococcus pneumoniae (ATCC 6301) (Streptococcus sp.; Streptococcus pneumoniae (ATCC 6301)): 4 µg/mL (≈ 3.89 µM); MIC Streptococcus pneumoniae (GC 1894) (Streptococcus sp.; Streptococcus pneumoniae (GC 1894)): 2 µg/mL (≈ 1.95 µM); MIC Streptococcus pneumoniae (GC 4565) (Streptococcus sp.; Streptococcus pneumoniae (GC 4565)): 4 µg/mL (≈ 3.89 µM); MIC Streptococcus pyogenes (GC 4563) (Streptococcus sp.; Streptococcus pyogenes (GC 4563)): 8 µg/mL (≈ 7.78 µM); MIC Staphylococcus aureus-SMITH (GC 4543) (Staphylococcus sp.): 64 µg/mL (≈ 62.3 µM); MIC Enterococcus avium (GC 4558) (Enterococcus sp.; Enterococcus avium (GC 4558)): 64 µg/mL (≈ 62.3 µM); MIC Enterococcus faecalis (ATCC 29212) (Enterococcus sp.; Enterococcus faecalis (ATCC 29212)): >64 µg/mL; MIC Enterococcus faecalis (GC 2242) (Enterococcus sp.; Enterococcus faecalis (GC 2242)): 64 µg/mL (≈ 62.3 µM); MIC Enterococcus faecalis (GC 2691) (Enterococcus sp.; Enterococcus faecalis (GC 2691)): >64 µg/mL; MIC Enterococcus faecalis (GC 3059) (Enterococcus sp.; Enterococcus faecalis (GC 3059)): >64 µg/mL; MIC Enterococcus faecalis (GC 4552) (Enterococcus sp.; Enterococcus faecalis (GC 4552)): >64 µg/mL; MIC Enterococcus faecalis (GC 4553) (Enterococcus sp.; Enterococcus faecalis (GC 4553)): 64 µg/mL (≈ 62.3 µM); MIC Enterococcus faecalis (GC 4554) (Enterococcus sp.; Enterococcus faecalis (GC 4554)): >64 µg/mL; MIC Enterococcus faecalis (GC 6189) (Enterococcus sp.; Enterococcus faecalis (GC 6189)): >64 µg/mL; MIC Enterococcus faecium (GC 2243) (Enterococcus sp.; Enterococcus faecium (GC 2243)): 64 µg/mL (≈ 62.3 µM); MIC Enterococcus faecium (GC 4556) (Enterococcus sp.; Enterococcus faecium (GC 4556)): 64 µg/mL (≈ 62.3 µM); MIC Enterococcus faecium (GC 4557) (Enterococcus sp.; Enterococcus faecium (GC 4557)): 64 µg/mL (≈ 62.3 µM)
